# Read-outs that look alike come from different tables or passages of the source.
# Tests used:
# [1] = tested on: Staphulococcus aureus (ATCC 29213); test: Minimum inhibitory concentration (MIC) assay, Example 33; assay type: cell-based, Staphylococcus aureus; conditions: Staphylococcus aureus
# Procedure, shortened: (§1)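 In CAMHB, 2-fold compound series meet bacteria from fresh isolated colonies, turbidity-adjusted to OD600 0.08-0.13 and diluted 1:100 (2× inoculum). Incubation: 35° C. Endpoint: MIC per CLSI.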
# [2] = tested on: Escherichia coli (ATCC 25922); test: as above; assay type: cell-based; conditions: Escherichia coli, read-out: MIC E. coli
# Procedure, shortened: as §1
# [3] = tested on: Pseudomonas aeruginosa (ATCC 27853); test: as above; assay type: cell-based; conditions: Pseudomonas aeruginosa
# Procedure, shortened: as §1
# Aspergillus niger = test: Extended time kill study, Example 34 (0 to 24 h); assay type: cell-based
# Description: (§2) Time kill studies. Strain suspensions were prepared as described above for the MIC test, and strain suspensions and compound solutions were mixed in the same volume. Samples were removed at specified times including 0 min, 30 sec, 1 min and 5 mins, were diluted in the test medium and streaked on agar. Colonies were counted after 24 to 48 hrs of incubation.
# (§3) The time kill studies of Example 33 were extended for five compounds (Nex-59, Nex-60, Nex-61, Nex-62, and Nex-88) using the same methods at longer time periods and at higher multiples of MIC. Nex-88 is a code number for DDAIP.HCl from a different supplier.
# Candida albicans = test: Extended time kill study, Example 34 (0 to 24 h); assay type: cell-based
# Description: as §2, §3
# Escherichia coli = test: Extended time kill study, Example 34 (0 to 24 h); assay type: cell-based
# Description: as §2, §3
compound,measurement,setting,value
"CCCCCCCCCCCCOC(=O)C(C)NC.Cl (stereo not drawn) [Nex-59, Dodecyl 2-(methylamino)propanoate hydrochloride]",melting point,,78 to 83 °C
same,MIC,"[1]; ATCC29213, Table 19 summary, read-out: MIC",50 µg/mL
same,MIC,"[1]; ATCC29213, n = 1, read-out: MIC S. aureus",50 µg/mL
same,MIC,"[1]; ATCC29213, n = 2, read-out: MIC S. aureus",50 µg/mL
same,MIC,"[2]; ATCC25922, n = 1",50 µg/mL
same,MIC,"[2]; ATCC25922, n = 2",50 µg/mL
same,MIC,"[3]; ATCC27853, Table 19 summary, read-out: MIC",3130 µg/mL
same,MIC,"[3]; ATCC27853, n = 1, read-out: MIC P. aeruginosa",3130 µg/mL
same,MIC,"[3]; ATCC27853, n = 2, read-out: MIC P. aeruginosa",3130 µg/mL
same,Viable counts in Log10 CFU/mL,"Aspergillus niger; 1 × MIC, 1 h",5.34 Log10 CFU/mL
same,Viable counts in Log10 CFU/mL,"Aspergillus niger; 1 × MIC, 2 h",5.48 Log10 CFU/mL
same,Viable counts in Log10 CFU/mL,"Aspergillus niger; 1 × MIC, 4 h",5.08 Log10 CFU/mL
same,Viable counts in Log10 CFU/mL,"Aspergillus niger; 1 × MIC, 6 h",5.30 Log10 CFU/mL
same,Viable counts in Log10 CFU/mL,"Aspergillus niger; 1 × MIC, 24 h",3.78 Log10 CFU/mL
same,Viable counts in Log10 CFU/mL,"Aspergillus niger; 1 × MIC, 0 h",5.41 Log10 CFU/mL
same,Viable counts in Log10 CFU/mL,"Aspergillus niger; 2 × MIC, 1 h",5.11 Log10 CFU/mL
same,Viable counts in Log10 CFU/mL,"Aspergillus niger; 2 × MIC, 2 h",4.70 Log10 CFU/mL
same,Viable counts in Log10 CFU/mL,"Aspergillus niger; 2 × MIC, 4 h",4.48 Log10 CFU/mL
same,Viable counts in Log10 CFU/mL,"Aspergillus niger; 2 × MIC, 6 h",3.95 Log10 CFU/mL
same,Viable counts in Log10 CFU/mL,"Aspergillus niger; 2 × MIC, 24 h",<2 Log10 CFU/mL
same,Viable counts in Log10 CFU/mL,"Aspergillus niger; 2 × MIC, 0 h",5.36 Log10 CFU/mL
same,Viable counts in Log10 CFU/mL,"Aspergillus niger; 4 × MIC, 1 h",5.08 Log10 CFU/mL
same,Viable counts in Log10 CFU/mL,"Aspergillus niger; 4 × MIC, 2 h",4.48 Log10 CFU/mL
same,Viable counts in Log10 CFU/mL,"Aspergillus niger; 4 × MIC, 4 h",3.85 Log10 CFU/mL
same,Viable counts in Log10 CFU/mL,"Aspergillus niger; 4 × MIC, 6 h",4.04 Log10 CFU/mL
same,Viable counts in Log10 CFU/mL,"Aspergillus niger; 4 × MIC, 24 h",<2 Log10 CFU/mL
same,Viable counts in Log10 CFU/mL,"Aspergillus niger; 4 × MIC, 0 h",5.29 Log10 CFU/mL
same,Viable counts in Log10 CFU/mL,"Candida albicans; 1 × MIC, 1 h",5.41 Log10 CFU/mL
same,Viable counts in Log10 CFU/mL,"Candida albicans; 1 × MIC, 2 h",5.24 Log10 CFU/mL
same,Viable counts in Log10 CFU/mL,"Candida albicans; 1 × MIC, 4 h",4.96 Log10 CFU/mL
same,Viable counts in Log10 CFU/mL,"Candida albicans; 1 × MIC, 6 h",4.40 Log10 CFU/mL
same,Viable counts in Log10 CFU/mL,"Candida albicans; 1 × MIC, 24 h",>6 Log10 CFU/mL
same,Viable counts in Log10 CFU/mL,"Candida albicans; 1 × MIC, 0 h",5.68 Log10 CFU/mL
same,Viable counts in Log10 CFU/mL,"Candida albicans; 2 × MIC, 1 h",3.48 Log10 CFU/mL
same,Viable counts in Log10 CFU/mL,"Candida albicans; 2 × MIC, 2 h",3.00 Log10 CFU/mL
same,Viable counts in Log10 CFU/mL,"Candida albicans; 2 × MIC, 4 h",3.00 Log10 CFU/mL
same,Viable counts in Log10 CFU/mL,"Candida albicans; 2 × MIC, 6 h",<2.70 Log10 CFU/mL
same,Viable counts in Log10 CFU/mL,"Candida albicans; 2 × MIC, 24 h",<1 Log10 CFU/mL
same,Viable counts in Log10 CFU/mL,"Candida albicans; 2 × MIC, 0 h",5.75 Log10 CFU/mL
same,Viable counts in Log10 CFU/mL,"Candida albicans; 4 × MIC, 1 h",<3 Log10 CFU/mL
same,Viable counts in Log10 CFU/mL,"Candida albicans; 4 × MIC, 2 h",<3 Log10 CFU/mL
same,Viable counts in Log10 CFU/mL,"Candida albicans; 4 × MIC, 4 h",<2.70 Log10 CFU/mL
same,Viable counts in Log10 CFU/mL,"Candida albicans; 4 × MIC, 6 h",<2.70 Log10 CFU/mL
same,Viable counts in Log10 CFU/mL,"Candida albicans; 4 × MIC, 24 h",<1 Log10 CFU/mL
same,Viable counts in Log10 CFU/mL,"Candida albicans; 4 × MIC, 0 h",5.63 Log10 CFU/mL
same,"Viable counts, Escherichia coli time kill study","Escherichia coli; 1 × MIC, 1 h",1 Log10 CFU/mL
same,"Viable counts, Escherichia coli time kill study","Escherichia coli; 1 × MIC, 2 h",<1 Log10 CFU/mL
same,"Viable counts, Escherichia coli time kill study","Escherichia coli; 1 × MIC, 4 h",1.85 Log10 CFU/mL
same,"Viable counts, Escherichia coli time kill study","Escherichia coli; 1 × MIC, 6 h",2.81 Log10 CFU/mL
same,"Viable counts, Escherichia coli time kill study","Escherichia coli; 1 × MIC, 24 h",7.91 Log10 CFU/mL
same,"Viable counts, Escherichia coli time kill study","Escherichia coli; 1×MIC, time 0",5 Log10 CFU/mL
same,"Viable counts, Escherichia coli time kill study","Escherichia coli; 2 × MIC, 1 h",<1 Log10 CFU/mL
same,"Viable counts, Escherichia coli time kill study","Escherichia coli; 2 × MIC, 2 h",<1 Log10 CFU/mL
same,"Viable counts, Escherichia coli time kill study","Escherichia coli; 2 × MIC, 4 h",<1 Log10 CFU/mL
same,"Viable counts, Escherichia coli time kill study","Escherichia coli; 2 × MIC, 6 h",<1 Log10 CFU/mL
same,"Viable counts, Escherichia coli time kill study","Escherichia coli; 2 × MIC, 24 h",<1 Log10 CFU/mL
same,"Viable counts, Escherichia coli time kill study","Escherichia coli; 2 × MIC, time 0",5.12 Log10 CFU/mL
same,"Viable counts, Escherichia coli time kill study","Escherichia coli; 4 × MIC, 1 h",<1 Log10 CFU/mL
same,"Viable counts, Escherichia coli time kill study","Escherichia coli; 4 × MIC, 2 h",<1 Log10 CFU/mL
same,"Viable counts, Escherichia coli time kill study","Escherichia coli; 4 × MIC, 4 h",<1 Log10 CFU/mL
same,"Viable counts, Escherichia coli time kill study","Escherichia coli; 4 × MIC, 6 h",<1 Log10 CFU/mL
same,"Viable counts, Escherichia coli time kill study","Escherichia coli; 4 × MIC, 24 h",<1 Log10 CFU/mL
same,"Viable counts, Escherichia coli time kill study","Escherichia coli; 4 × MIC, time 0",5.04 Log10 CFU/mL
